Results taken from patent US11401278B2, “Macrocyclic indole derivatives” (The Broad Institute, Inc., priority 2017, dated 2022).
Where a name gives a salt, the structure may show the parent alone. Read-outs that look alike come from different tables or passages of the source. Each block holds one compound with its values, some of them ahead of it.

Experiments:
SUDHL5 [1] = experiment: Induction of caspase-3/7 activity (Assay 4), SUDHL5; format: cell-based; conditions: caspase-3/7 induction, median
Protocol: (§1) Cellular Assays Assay 4 Induction of Caspase-3/7 Activity Upon Treatment of Cells with Selected Compounds
(§2) The BH3-domain of MCL-1 sequesters pro-apoptotic proteins, thereby inhibiting apoptosis. In contrast, MCL-1 inhibitors are expected to antagonize this effect leading to an increase in apoptosis, which can be determined by measuring the activity of caspase-3/7.
(§3) The activity of caspase-3/7 was determined in DLBCL (Diffuse large B-cell lymphoma) cell lines (SUDHL5 and SUDHL10) upon treatment with different compounds, using the Caspase-Glo® 3/7 reagent from Promega (G8092).
(§4) Rim wells were excluded. The cells were incubated for 3 hours in a humidified incubator at 37° C.
(§5) For the evaluation of the results, the background measured with “medium-only” was subtracted from all other values. […] The Bella DRC Master Sheet was used to calculate EC50s, with fixed C0=1 and CI=plateau/max induction for the reference compound.

MV-4-11 = experiment: Antiproliferation assay (Assay 7), MV-4-11; format: cell-based; conditions: CellTiter-Glo, several values per example
Protocol: (§6) Assessment of the Anti-Proliferative Effect of Compounds in Different Cell Lines
(§7) The impact of compounds on the proliferation of different cell lines was assessed using the CellTiter-Glo® Luminescent Cell Viability reagent from Promega (G7573).
(§8) In parallel, cells were plated in a reference (day 0) plate for time zero determination.
(§9) Rim wells were excluded. The cells were incubated for 72 hours in a humidified incubator at 37° C. The day 0 plate was measured by adding 30 μL/well of CTG solution (CellTiter-Glo® Luminescent Cell Viability reagent, Promega G7573) to time zero wells in the reference plate followed by a 10 minutes incubation and luminescence reading at 0.1 ms. using the PHERAstar FS microplate reader (BMG Labtech).
(§10) After 72 hours incubation, the treated plates were measured in the same way as the day 0 plate mentioned above.

SUDHL10 [2] = experiment: Induction of caspase-3/7 activity (Assay 4), SUDHL10; format: cell-based; conditions: caspase-3/7 induction, median
Protocol: as §1, §2, §3, §4, §5

A2780 = experiment: Antiproliferation assay (Assay 7), A2780; format: cell-based; conditions: CellTiter-Glo, several values per example
Protocol: as §6, §7, §8, §9, §10

SUDHL10 [3] = experiment: Induction of cytotoxicity (Assay 6), SUDHL10; conditions: read-out: Cytotox SUDHL10 [M] (median) IC50, CellTiter-Glo, 5 hours, SUDHL10
MCL-1 = MCL-1 (Homo sapiens (Human), UniProt Q07820, K194A/K197A/R201A); experiment: Protein-protein interaction assay MCL-1/Noxa BH3 peptide (MCL-1 assay, TR-FRET); format: binding; conditions: MBP-MCL-1 / Noxa BH3 peptide, median
Sequence of MCL-1 (Q07820 whole entry K194A/K197A/R201A, looked up): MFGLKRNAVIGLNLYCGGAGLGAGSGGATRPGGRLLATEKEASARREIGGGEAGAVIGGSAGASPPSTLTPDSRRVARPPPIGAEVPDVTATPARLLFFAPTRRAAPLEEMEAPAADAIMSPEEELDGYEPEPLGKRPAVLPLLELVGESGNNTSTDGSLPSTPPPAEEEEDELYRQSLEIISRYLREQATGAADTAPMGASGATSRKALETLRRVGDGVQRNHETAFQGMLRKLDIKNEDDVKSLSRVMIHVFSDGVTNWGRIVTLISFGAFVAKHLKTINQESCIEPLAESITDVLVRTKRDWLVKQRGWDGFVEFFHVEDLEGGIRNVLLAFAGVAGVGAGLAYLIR
Protocol: Protein-Protein Interaction Assay: MCL-1/Noxa BH3 Peptide (MCL-1 Assay)
The dose-dependent inhibition by the compounds described in this invention of the interaction between MCL-1 and the BH3 domain of Noxa (both human) was determined using a steady state binding competition assay with time-resolved fluorescence energy transfer (TR-FRET) readout. For that purpose MCL-1 (amino acids 173-329, N-terminal fused to Maltose Binding Protein (MBP) SEQ ID 1) and a synthetic Noxa BH3-derived peptide of sequence Biotin-PEG2-PEG2-PAELEVE-Nva-ATQLRRFGDKLNFRQKLL-amide (SEQ ID 2) served as protein receptor and tracer ligand respectively. The MBP-MCL-1 was purchased from Beryllium (Bedford, Mass., USA). The expression and purification of this protein construct has been described elsewhere (DOI:10.1371/journal.pone.0125010). The Noxa BH3-derived peptide can be obtained from e.g. Biosyntan (Berlin, Germany).
In the assay 11 different concentrations of each compound (0.1 nM, 0.33 nM, 1.1 nM, 3.8 nM, 13 nM, 44 nM, 0.15 μM, 0.51 μM, 1.7 μM, 5.9 μM and 20 μM) were typically measured as duplicates in the same microtiter plate. For that, 100-fold concentrated DMSO solutions were prepared by serial dilutions (1:3.4) of a 2 mM stock solution in a clear, 384-well microtiter plate (Greiner Bio-One, Frickenhausen, Germany). From there, 50 nl were transferred in a dark test plate (Greiner Bio-One, Frickenhausen, Germany). The assay was initiated by addition of 2 μl of a 2.5-fold concentrated MBP-MCL-1 solution (usually for a 1 nM end concentration in 5 μl reaction volume) in aqueous assay buffer [50 mM Tris/HCl pH 7, 100 mM sodium chloride (NaCl), 50 mM potassium fluoride (KF), 0.005% Tween-20, 2 mM DTT, 0.1% bovine gamma globulin (BGG)] to the compounds in the assay plate. This was followed by a 10-minute incubation step at 22° C. for pre-equilibration of the putative complex between MBP-MCL-1 and the compounds. After that, 3 μl of a 1.67-fold concentrated solution (in assay buffer) consisting of Noxa BH3-derived peptide (1 nM end concentration) and TR-FRET detection reagents [1.67 nM anti-MBP-Eu cryptate and 1.67 nM streptavidin-XL665 (both from Cisbio Bioassays, Codolet, France)], were added.
The mixture was incubated in the dark for one hour at 22° C. and then overnight at 4° C. The formation of MCL-1/Noxa complexes was determined by measuring the resonance energy transfer of the anti-MBP-Eu-cryptate antibody to the streptavidin-XL665 present in the reaction. For that purpose, the fluorescence emission at 620 nm and 665 nm after excitation at 330-350 nm was measured in a TR-FRET measuring instrument, for instance a Rubystar or a Pherastar (both from BMG Lab Technologies, Offenburg, Germany) or a Viewlux (Perkin-Elmer). The ratio of the emission at 665 nm and at 622 nm was used as indicator of the amount of MCL-1/NOXA complexes present.
The resulting data (ratio) were normalized, taking 0% inhibition as the mean value of control measurements (usually 32 data points) where all reagents were included. In this case 50 nl DMSO were used instead of compounds. A 100% inhibition corresponded to the mean value of control measurements (usually 32 data points) where all reagents except MCL-1 were included. IC50 values were determined by regression analysis based on a 4 parameter equation (minimum, maximum, IC50, Hill; Y=Max+(Min−Max)/(1+(X/IC50)^HiII) using the Screener Software (Genedata).

SUDHL5 [4] = experiment: Antiproliferation assay (Assay 7), SUDHL5; format: cell-based; conditions: CellTiter-Glo, median, read-out: Antiproli SUDHL5 [M] (median) IC50
Protocol: as §6, §7, §8, §9, §10

SUDHL5 [5] = experiment: Induction of cytotoxicity (Assay 6), SUDHL5; conditions: read-out: Cytotox SUDHL5 [M] (median) IC50, CellTiter-Glo, 5 hours, SUDHL5
[6] = amine bond
SUDHL5 [7] = test system: SUDHL5
SUDHL10 [8] = test system: SUDHL10
AMO-1 = experiment: Antiproliferation assay (Assay 7), AMO-1; format: cell-based; conditions: CellTiter-Glo, 72 hours, several values per example, read-out: Antiproli AMO-1 [M] IC50
Protocol: as §6, §7, §8, §9, §10

HMC-1-8 = experiment: Antiproliferation assay (Assay 7), HMC-1-8; format: cell-based; conditions: CellTiter-Glo, 72 hours, several values per example, read-out: Antiproli HMC-1-8 [M] IC50
Protocol: as §6, §7, §8, §9, §10

[9] = Homo sapiens, MV4-11, 72 h, read-out: Antiproli MV-4-11 [M] IC50
[10] = Homo sapiens, A2780, 72 h, read-out: Antiproli A2780 [M] IC50

EC50 (SUDHL5 [1]; 3 hours): 3.9 µM
IC50 (MV-4-11; 72 hours, listed as 02, read-out: Antiproli MV-4-11 [M] IC50): 8.63e-06 M
IC50 (MV-4-11; [9]): 1.17e-05 M
EC50 (SUDHL10 [2]; 3 hours): 11 µM
IC50 (A2780; 72 hours, listed as 02, read-out: Antiproli A2780 [M] IC50): > 3.3e-05 M
IC50 (A2780; [10]): 2.66e-05 M
IC50 (MCL-1): 0.0034 µM
IC50 (SUDHL5 [4]; 72 hours): 4.4e-06 M
SMILES: Cc1c2c(nn1C)CN(CCN1CCOCC1)S(=O)(=O)CCCn1c(C(=O)O)c(CCCOc3cccc4ccccc34)c3cccc-2c31 (single isomer, unassigned; enantiomer 1) [Example 2, 2,3-Dimethyl-14-[2-(morpholin-4-yl)ethyl]-7-{3-[(naphthalen-1-yl)oxy]propyl}-13,13-dioxo-10,11,12,13,14,15-hexahydro-2H-13λ^6-pyrazolo[3′,4′:4,5][1,2,8]thiadiazacycloundecino-[6,7,8-hi]indole-8-carboxylic acid-N-ethylethanamine salt (Enantiomer 1)]
IC50 (SUDHL10 [3]): 9.8e-06 M
IC50 (SUDHL5 [5]): 3.5e-06 M

EC50 (SUDHL5 [1]; Homo sapiens, SU-DHL-5, 3 h): 3.1 µM
IC50 (MV-4-11; 72 hours, read-out: Antiproli MV-4-11 [M] IC50): 1.28e-05 M
IC50 (MV-4-11; [9]): 1.54e-05 M
EC50 (SUDHL10 [2]; Homo sapiens, SU-DHL10, 3 h): 14 µM
IC50 (A2780; 72 hours, read-out: Antiproli A2780 [M] IC50): > 3.3e-05 M
IC50 (A2780; [10]): 1.68e-05 M
IC50 (MCL-1): 0.0074 µM
IC50 (SUDHL5 [4]; Homo sapiens, SU-DHL-5, 72 h): 3.8e-06 M
SMILES: Cc1c2c(nn1C)CN(C)S(=O)(=O)CCCC1C(C(=O)O)=C(CCCOc3cccc4ccccc34)c3cccc-2c31 (racemic) [Example 10, (rac)-2,3,14-Trimethyl-7-[3-(1-naphthyloxy)propyl]-11,12,14,15-tetrahydro-2H,10H-pyrazolo[3′,4′:4,5][1,2,8]thiadiazacycloundecino[6,7,8-hi]indole-8-carboxylic acid 13,13-dioxide]
IC50 (SUDHL10 [3]; Homo sapiens, SU-DHL10, 5 h): 1.2e-05 M
IC50 (SUDHL5 [5]; Homo sapiens, SU-DHL-5, 5 h): 3.8e-06 M

SMILES: CCOC(=O)c1c(CCCOc2cccc3cc(F)ccc23)c2ccc(Cl)c3c2n1CCCS(=O)(=O)N(C)CCC(N1CCOCC1)c1nn(C)c(C)c1-3 (stereo not drawn)
ring closure, yield of all isomers ([6]; from CCOC(=O)c1[nH]c2c(-c3c(C(CCN(C)S(=O)(=O)CCCCl)N4CCOCC4)nn(C)c3C)c(Cl)ccc2c1CCCOc1cccc2cc(F)ccc12, Cs2CO3, acetonitrile, 40.7 mM, 60.0 °C, 48.0 h): 63.7%

SMILES: CCOC(=O)c1c(CCCOc2cccc3ccccc23)c2cccc3c2n1CCCS(=O)(=O)N(C)C(C)c1nn(C)c(CC)c1-3 (racemic)
ring closure, yield of all isomers ([6]; from CCOC(=O)c1[nH]c2c(-c3c(C(C)N(C)S(=O)(=O)CCCCl)nn(C)c3CC)cccc2c1CCCOc1cccc2ccccc12, Cs2CO3, MeCN, 50.0 mM, 60.0 °C, 18.0 h): 81.9%

SMILES: CCc1c2c(nn1C)C(CCN1CCOCC1)N(C)S(=O)(=O)CCCn1c(C(=O)O)c(CCCOc3cccc4cc(F)ccc34)c3ccc(Cl)c-2c31 (single isomer, unassigned) [Example 72, 4-chloro-3-ethyl-7-{3-[(6-fluoronaphthalen-1-yl)oxy]propyl}-2,14-dimethyl-15-[2-(morpholin-4-yl)ethyl]-13,13-dioxo-10,11,12,13,14,15-hexahydro-2H-13lambda6-pyrazolo[3′,4′:4,5][1,2,8]thiadiazacycloundecino[6,7,8-hi]indole-8-carboxylic acid (Mixture of Stereoisomers)]
EC50 (SUDHL5 [1]; 3 hours): 0.015 µM
IC50 (SUDHL5 [7]): 0.0087 µM
EC50 (SUDHL10 [2]; 3 hours): 0.027 µM
IC50 (SUDHL10 [8]): 0.034 µM
IC50 (MCL-1): 0.0011 µM

SMILES: CCc1c2c(nn1C)C(CCN1CCOCC1)N(C)S(=O)(=O)CCCn1c(C(=O)O)c(CCCOc3cccc4cc(F)ccc34)c3ccc(Cl)c-2c31 (racemic) [Example 74, (rac) 4-chloro-3-ethyl-7-{3-[(6-fluoronaphthalen-1-yl)oxy]propyl}-2,14-dimethyl-15-[2-(morpholin-4-yl)ethyl]-13,13-dioxo-10,11,12,13,14,15-hexahydro-2H-13lambda6-pyrazolo[3′,4′:4,5][1,2,8]thiadiazacycloundecino[6,7,8-hi]indole-8-carboxylic acid (Racemate 2)]
EC50 (SUDHL5 [1]; 3 hours): 0.011 µM
IC50 (AMO-1): 3.9e-08 M
IC50 (SUDHL5 [7]): 0.013 µM
EC50 (SUDHL10 [2]; 3 hours): 0.014 µM
IC50 (SUDHL10 [8]): 0.017 µM
IC50 (HMC-1-8): 3.2e-07 M
IC50 (MCL-1): 0.0011 µM
IC50 (SUDHL5 [4]; 72 hours): 9.9e-09 M

SMILES: CCOC(=O)c1c(CCCOc2cccc3cc(F)ccc23)c2ccc(Cl)c3c2n1CCCS(=O)(=O)N(CCN1CCOCC1)Cc1nn(C)c(CC)c1-3
ring closure, yield of all isomers ([6]; from CCOC(=O)c1[nH]c2c(-c3c(CN(CCN4CCOCC4)S(=O)(=O)CCCCl)nn(C)c3CC)c(Cl)ccc2c1CCCOc1cccc2cc(F)ccc12, cesium carbonate, acetonitrile, 50.3 mM, 40.0 °C, 48.0 h): 90.3%
